Data: patent publication US5731343A (The Scripps Research Institute, priority 1995, dated 1998)
Read-outs that look alike come from different tables or passages of the source.

Experiments:
[1] = tested on: COX-2; assay: Recovery of COX activity (COX-2 expression) in aspirin-pretreated rat alveolar macrophages; type: cell-based; settings: read-out: IC50 suppression of LPS-induced expression of COX-2
[2] = tested on: murine resident peritoneal macrophages; settings: stimulated with zymosan, calcium ionophore A23187, and PMA; Glaser et al.; cited from earlier work
[3] = tested on: cyclooxygenase; settings: intact macrophages; Glaser et al. 1993; cited from earlier work
[4] = tested on: p53/56^lyn; assay: Western blot analysis of p53/56^lyn in LPS-stimulated macrophages; type: cell-based, rat; settings: 4 hours pretreatment; LPS (10 μg/ml)
[5] = tested on: RAW 264.7; settings: Weinstein et al., cited from earlier work
[6] = tested on: tyrosine phosphorylated proteins (Src family tyrosine kinases); assay: Antiphosphotyrosine immunoblotting of LPS-stimulated macrophages; type: cell-based; settings: 4 hours pretreatment; LPS (10 μg/ml); rat alveolar macrophages
[7] = tested on: p60^v-src; settings: cited from earlier work
[8] = tested on: p60^v-src; settings: Uehara et al. 1989; cited from earlier work
[9] = tested on: c-raf; settings: human T cells; June et al. 1990; cited from earlier work
[10] = target: T1, endogenous COX (Rattus norvegicus, UniProt Q63921); assay: Inactivation of endogenous COX activity in macrophages by aspirin; type: cell-based; settings: aspirin 500 μM, 2.5 hours
T1 construct: endogenous in cells; host or cells: alveolar macrophages of Sprague-Dawley rats (bronchoalveolar lavage)
T1 sequence (Q63921 27-602): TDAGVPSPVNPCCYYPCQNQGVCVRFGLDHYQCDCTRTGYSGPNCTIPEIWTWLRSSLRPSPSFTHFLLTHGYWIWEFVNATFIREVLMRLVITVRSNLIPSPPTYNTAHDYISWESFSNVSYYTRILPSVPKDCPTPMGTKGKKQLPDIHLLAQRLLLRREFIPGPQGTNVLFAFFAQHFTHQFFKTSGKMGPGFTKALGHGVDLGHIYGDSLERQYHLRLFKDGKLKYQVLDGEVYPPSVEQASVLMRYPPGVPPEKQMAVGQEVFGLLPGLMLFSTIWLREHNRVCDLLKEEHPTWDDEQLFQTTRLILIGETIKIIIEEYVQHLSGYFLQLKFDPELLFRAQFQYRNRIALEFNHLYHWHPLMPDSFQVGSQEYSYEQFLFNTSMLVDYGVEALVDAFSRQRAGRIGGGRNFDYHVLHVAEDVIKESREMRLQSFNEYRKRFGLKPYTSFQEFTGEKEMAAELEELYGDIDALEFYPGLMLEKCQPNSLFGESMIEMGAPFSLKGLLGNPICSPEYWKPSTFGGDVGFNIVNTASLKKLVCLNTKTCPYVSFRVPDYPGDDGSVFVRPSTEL
Text: In the previous study using the same cell type, it was shown that increased COX activity in LPS-stimulated macrophages which were pretreated with aspirin, results from selective expression of COX-2 (Lee, et al., supra). Therefore, de novo synthesized COX-2 in aspirin-pretreated macrophages can be accurately and conveniently quantitated by measuring recovered COX activity.

[11] = tested on: COX-2 mRNA; assay: cells; settings: Rattus norvegicus, Macrophage, 2 h, read-out: inhibition of COX-2 mRNA levels
[12] = target: p60^c-src (Homo sapiens, UniProt P12931)
p60^c-src, sequence (P12931 whole entry): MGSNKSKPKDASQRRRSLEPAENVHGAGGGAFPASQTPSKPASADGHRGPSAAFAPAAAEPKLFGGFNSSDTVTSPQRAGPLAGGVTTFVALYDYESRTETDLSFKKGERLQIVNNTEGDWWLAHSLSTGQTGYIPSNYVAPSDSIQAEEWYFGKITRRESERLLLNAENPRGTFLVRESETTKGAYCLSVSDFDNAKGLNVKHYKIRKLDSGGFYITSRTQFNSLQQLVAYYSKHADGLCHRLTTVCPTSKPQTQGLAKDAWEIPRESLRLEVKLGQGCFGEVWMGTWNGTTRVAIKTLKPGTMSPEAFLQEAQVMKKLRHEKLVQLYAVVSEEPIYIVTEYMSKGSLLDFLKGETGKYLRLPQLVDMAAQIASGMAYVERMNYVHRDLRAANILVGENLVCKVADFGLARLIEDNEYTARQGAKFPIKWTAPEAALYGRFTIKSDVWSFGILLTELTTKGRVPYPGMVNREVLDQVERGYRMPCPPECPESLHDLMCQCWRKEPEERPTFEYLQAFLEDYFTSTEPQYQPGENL

[13] = tested on: mitogen activated protein kinases (MAPK-1, MAPK-2 and p38); settings: 4 hours pretreatment; LPS (1 μg/ml); RAW 264.7
[14] = tested on: tumor cells; settings: U.S. Pat. Nos. 3,428,526 and 4,228,079; cited from earlier work

Compound N#CC(=Cc1ccc(O)c(O)c1)C(=O)Nc1ccccc1 [tryphostin (AG-494)] has an IC50 ([1]; LPS) of 357 µM.
In the case of O=c1c(-c2ccc(O)cc2)coc2cc(O)cc(O)c12 [genistein], the PGE2 production [2] is listed as “inhibited”, the IC50 [1] is listed as 22 µM and the “inhibitory effect on cyclooxygenase activity” value [3] is listed as “no inhibitory effect”.
For N#CC(C#N)=Cc1cc(O)c(O)c(O)c1 [tyrphostin-25], the PGE2 production [2] is given as “inhibited” and the “inhibitory effect on cyclooxygenase activity” value [3] is given as “no inhibitory effect”.
In the case of CO[C@H]1[C@@H](OC)C[C@H](C)[C@@H](OC)C2=CC(=O)C=C(NC(=O)/C(C)=C/C=C\[C@H](OC)[C@@H](OC(N)=O)/C(C)=C/[C@@H]1C)C2=O [herbimycin A], the “levels of p53/56^lyn” value [4] is listed as “significant reduction levels of p53/56^lyn”, the “LPS-induced release of [^3 H]-arachidonic acid metabolites” value ([5]; LPS) is listed as “dramatically inhibits” and the “PMA-induced release of [^3 H]-arachidonic acid metabolites” value ([5]; PMA) is listed as “only weakly inhibits”. The “levels of tyrosine phosphorylated proteins” value [6] was “suppressed levels of tyrosine phosphorylated proteins”, the IC50 ([7]; Uehara et al. 1989, read-out: IC50 in vitro kinase activity) was 12 µM and the “inhibitory effect on p60^v-src kinase activity in presence of sulfhydryl compounds” value ([7]; sulfhydryl compounds) was “abolished”. The IC50 [1] was 0.052 µM, the “degradation of p60^v-src” value [8] was “increased the degradation” and the PMA-stimulated c-raf activity [9] was “resistant to the inhibitory effects”.
In the case of CC(=O)Oc1ccccc1C(=O)O [aspirin], the inhibition at 500 µM [10] is reported as > 90%.
For C[C@@H]1C[C@H]2O[C@@H]2/C=C\C=C\C(=O)Cc2c(Cl)c(O)cc(O)c2C(=O)O1 [Radicicol, 5-chloro-6-(7,8-epoxy-10-hydroxy-2-oxo-3,5-undecadienyl)-β-resorcyclic acid μ-lactone], the inhibition at 1 µg/mL [11] is given as 50%, the “inhibition of p60^v-src” value ([7]; Kwon et al. 1992) is given as “inhibitor of p60^v-src” and the IC50 [12] is given as 8.2 µM. The “inhibition of tyrosine phosphorylation of MAPKs” value [13] was “inhibited tyrosine phosphorylation of MAPKs in a dose dependent fashion” and the “inhibitory effect in vitro on the growth of tumor cells” value [14] was “strong inhibitory effect”.
